ChEMBL document CHEMBL1201862, “PubChem BioAssay data set” (2004)
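Each compound was tested at five concentrations against cells in 96-well plates for 48 hours. The concentration for 50% growth inhibition is given as GI50.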 Active and inactive are the calls of the source. Rule as the data show it: active = GI50 up to about 1.1 µM and inactive = higher.

Columns and labels:
Test in all cases: inhibition of tumour cell growth, NCI panel, 48 h
[1] = system: K562
[2] = system: NCI-H522
[3] = system: U-251
[4] = system: NCI-H226
[5] = system: XF498
[6] = system: UACC-257
[7] = system: SF-295
[8] = system: 786-0
[9] = system: NCI-H460
[10] = system: LOX IMVI
[11] = system: HCT-15
[12] = system: M19-MEL
[13] = system: M14
[14] = system: ACHN
[15] = system: SNB-78
[16] = system: SNB-19
[17] = system: HOP-18
[18] = system: NCI/ADR-RES
[19] = system: MDA-MB-231
[20] = system: MDA-N

Row | SMILES | GI50 [1] | GI50 [2] | GI50 [3] | GI50 [4] | GI50 [5] | GI50 [6] | GI50 [7] | GI50 [8] | GI50 [9] | GI50 [10] | GI50 [11] [µM] | GI50 [12] | GI50 [13] | GI50 [14] | GI50 [15] | GI50 [16] | GI50 [17] | GI50 [18] | GI50 [19] | GI50 [20]
1 | O=C1OC(CCCl)(c2ccccc2)CC1CN1CCOCC1 (stereo not drawn) | 14.8 µM (inactive) | 18.7 µM (inactive) | > 100 µM (inactive) | 13.8 µM (inactive) | 14.6 µM (inactive) | 22.5 µM (inactive) | 43 µM (inactive) | 12.1 µM (inactive) | 67.3 µM (inactive) | 27.3 µM (inactive) | 20.9 | 22.1 µM (inactive) | 20.4 µM (inactive) | 32.2 µM (inactive) | 26.2 µM (inactive) |  |  |  |  | 
2 | O=c1cc2n(c(=O)[nH]1)C1OC(C(O)C1O)[C@H]2CCO (stereo partly drawn) | > 100 µM (inactive) | > 100 µM (inactive) | > 100 µM (inactive) | > 100 µM (inactive) |  | > 100 µM (inactive) | > 100 µM (inactive) | > 100 µM (inactive) | > 100 µM (inactive) | > 100 µM (inactive) |  | > 100 µM (inactive) |  | > 100 µM (inactive) | > 100 µM (inactive) | > 100 µM (inactive) |  |  |  | 
3 | CCC1CCC2CCCC(C)N12 (stereo not drawn) | > 100 µM (inactive) | > 100 µM (inactive) | > 100 µM (inactive) | > 100 µM (inactive) | > 100 µM (inactive) | > 100 µM (inactive) | > 100 µM (inactive) | > 100 µM (inactive) |  |  | > 100 | > 100 µM (inactive) | > 100 µM (inactive) | > 100 µM (inactive) |  | > 100 µM (inactive) | > 100 µM (inactive) |  |  | 
4 | COC(=O)C[C@@H]1C(C)(C)[C@@H]2O[C@@]34C[C@@H]2C(=O)[C@]1(C)[C@H]3CC[C@@]1(C)[C@H](c2ccoc2)OC(=O)C[C@]14O | > 100 µM (inactive) | > 100 µM (inactive) | > 100 µM (inactive) | > 100 µM (inactive) |  | > 100 µM (inactive) | > 100 µM (inactive) | > 100 µM (inactive) | > 100 µM (inactive) | > 100 µM (inactive) | > 100 |  | > 100 µM (inactive) | > 100 µM (inactive) |  | 71.6 µM (inactive) |  | > 100 µM (inactive) | > 100 µM (inactive) | > 100 µM (inactive)
5 | Cc1ccc(F)c2c(=O)cc(-c3ccccc3)[nH]c12 | > 100 µM (inactive) | > 100 µM (inactive) | > 100 µM (inactive) | 63 µM (inactive) |  | > 100 µM (inactive) | > 100 µM (inactive) | > 100 µM (inactive) | > 100 µM (inactive) | > 100 µM (inactive) | > 100 | > 100 µM (inactive) | > 100 µM (inactive) | > 100 µM (inactive) |  |  | > 100 µM (inactive) |  |  | 
6 | O=C(/N=C(/Nc1ccccc1)SCCS/C(=N\C(=O)c1ccccc1)Nc1ccccc1)c1ccccc1 | 43.6 µM (inactive) | 22.2 µM (inactive) | 79.8 µM (inactive) | 66.5 µM (inactive) | 36.9 µM (inactive) | 42.5 µM (inactive) | 58.9 µM (inactive) | 61.4 µM (inactive) | 44.3 µM (inactive) | 58.6 µM (inactive) | 54.8 | 63.5 µM (inactive) | 60.5 µM (inactive) | 55.7 µM (inactive) | > 100 µM (inactive) | 56.4 µM (inactive) |  |  |  | 
7 | CC(=O)NNc1ncc(C(=O)/C=C/c2ccccc2C)s1 | > 100 µM (inactive) | > 100 µM (inactive) | > 100 µM (inactive) |  |  | > 100 µM (inactive) | > 100 µM (inactive) | > 100 µM (inactive) | > 100 µM (inactive) | > 100 µM (inactive) |  | > 100 µM (inactive) |  | > 100 µM (inactive) | > 100 µM (inactive) | > 100 µM (inactive) | > 100 µM (inactive) |  |  | 
8 | C=C1C(=O)OC2CC1C(OC(=O)/C=C/c1ccccc1)C/C(C)=C/CC/C(C)=C/CCC2(C)O (stereo not drawn) | 0.906 µM (active) | 0.692 µM (active) | 1.84 µM (inactive) | 1.64 µM (inactive) |  | 1.87 µM (inactive) | 1.56 µM (inactive) | 1.31 µM (inactive) | 1.36 µM (inactive) | 0.828 µM (active) | 0.889 |  | 1.64 µM (inactive) | 1.61 µM (inactive) |  | 1.89 µM (inactive) |  | 1.74 µM (inactive) | 1.66 µM (inactive) | 1.38 µM (inactive)
9 | O=C1C2C(C(=O)N1Cc1ccccc1)N(Cc1ccccc1)C(=O)N2Cc1ccccc1 (stereo not drawn) | > 100 µM (inactive) | > 100 µM (inactive) | > 100 µM (inactive) | > 100 µM (inactive) | > 100 µM (inactive) | > 100 µM (inactive) | > 100 µM (inactive) | > 100 µM (inactive) | > 100 µM (inactive) | > 100 µM (inactive) | > 100 | > 100 µM (inactive) | > 100 µM (inactive) | > 100 µM (inactive) | > 100 µM (inactive) | > 100 µM (inactive) |  |  |  | 
10 | COc1cccc(/C=N/C23CC4CC(CC(C4)C2)C3)c1 | > 100 µM (inactive) | > 100 µM (inactive) | > 100 µM (inactive) | > 100 µM (inactive) |  | > 100 µM (inactive) | > 100 µM (inactive) | > 100 µM (inactive) | > 100 µM (inactive) | > 100 µM (inactive) | > 100 | > 100 µM (inactive) | > 100 µM (inactive) | > 100 µM (inactive) | > 100 µM (inactive) | > 100 µM (inactive) |  |  |  | 
11 | COC(=O)C1C(=O)C(C(=O)OC)C2CCC1N2C (stereo not drawn) | 31.8 µM (inactive) | > 100 µM (inactive) | 56.1 µM (inactive) | 36.2 µM (inactive) |  | 83.4 µM (inactive) | > 100 µM (inactive) | 33.7 µM (inactive) | 48.3 µM (inactive) | 35.4 µM (inactive) | 1.84 |  | 29.8 µM (inactive) | 41 µM (inactive) |  | > 100 µM (inactive) |  | 48.6 µM (inactive) | 39 µM (inactive) | 23.8 µM (inactive)
12 | CCOc1cn(C2OC(CO)C(O)C2O)c(=O)[nH]c1=O (stereo not drawn) | > 100 µM (inactive) | > 100 µM (inactive) | 20.3 µM (inactive) | > 100 µM (inactive) |  | > 100 µM (inactive) | > 100 µM (inactive) | > 100 µM (inactive) | > 100 µM (inactive) | > 100 µM (inactive) | > 100 | > 100 µM (inactive) | > 100 µM (inactive) | > 100 µM (inactive) | > 100 µM (inactive) | > 100 µM (inactive) | > 100 µM (inactive) |  |  | 
13 | CN(C)c1ccc(/C=C2\N=C(NN)NC2=O)cc1 | 10.1 µM (inactive) | 46.1 µM (inactive) | 47.6 µM (inactive) | 78.2 µM (inactive) |  | > 100 µM (inactive) | > 100 µM (inactive) | 75.2 µM (inactive) | 69.8 µM (inactive) | 35.3 µM (inactive) | 50.8 |  | > 100 µM (inactive) | > 100 µM (inactive) |  | > 100 µM (inactive) |  | 82.2 µM (inactive) | 59.3 µM (inactive) | 73.8 µM (inactive)
14 | COC1=CC(=O)C2C(C1=O)C(c1ccccc1)[C@H]2C (stereo partly drawn) | 34.4 µM (inactive) |  | > 100 µM (inactive) |  | 22.3 µM (inactive) |  | > 100 µM (inactive) | > 100 µM (inactive) | > 100 µM (inactive) | > 100 µM (inactive) | 18.9 |  | > 100 µM (inactive) | 25.5 µM (inactive) | > 10 µM (inactive) | > 100 µM (inactive) |  |  |  | 
